Holding throughout (test): NCI-60 cell line screen, 48 h
The test system of assay [1] is MDA-N.
Assay [2] relates to SNB-78.
Assay [3] relates to DLD-1.
The test system of assay [4] is M19-MEL.
For assay [5], the system named is DMS-114.
For assay [6], the system named is LXFL 529.
Assay [7] has as its system DMS-273.
In assay [8] the test system is HOP-18.

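Protocol summary: plate cells (96-well), add compound at 5 concentrations, incubate 48 h, interpolate endpoints linearly. Here, GI50 denotes the concentration required for 50% inhibition of growth.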 Active and inactive are the calls of the source. No stated cut-off is given here; in the data, active = GI50 up to about 1.1 µM and inactive = higher. Where a SMILES comes first, the peptide text is derived from it. The star is where a group is joined. Boc = CC(C)(C)OC(=O)* Bounds are passed on as bounds.

Results on 55 compounds are retold here after ChEMBL document CHEMBL1201862, “PubChem BioAssay data set” (2004).

`CN(Cc1ccccc1)Cn1ccnc1`: the GI50 in assay [1] is 76 µM (inactive).

Consider `COc1cc(C2c3cc4c(cc3CC3COC(=O)N32)OCO4)cc(OC)c1OC` (configuration not stated), for which, in assay [1], the GI50 was 0.434 µM (active).

In the case of `Cc1nc2c(O)c3c(c(O)c2nc1C)C1C=CC3CC1`, the GI50 in assay [1] was 2.97 µM (inactive).

On to `OCC1OC(n2cnc3c(SCc4ccccc4)ncnc32)C(O)C1O` (configuration not stated), for which the GI50 in assay [1] is > 100 µM (inactive).

With `NC(=O)NN=C1Cc2ccccc2C1`, in assay [1], the GI50 was > 100 µM (inactive).

In the case of `CN(C)Cc1cc(C(=O)/C=C/c2ccc(/C=C/C(=O)c3cc(CN(C)C)c(O)c(CN(C)C)c3)cc2)cc(CN(C)C)c1O`, the GI50 in assay [1] is > 10 µM (inactive).

For the compound `CC1CC(c2cccc3c2OCO3)=Nc2ccccc2S1` (configuration not stated), the GI50 is > 100 µM (inactive) in assay [2]; > 100 µM (inactive) in assay [3]; > 100 µM (inactive) in assay [4]; 65.6 µM (inactive) in assay [5]; > 100 µM (inactive) in assay [6]; > 100 µM (inactive) in assay [7].

As for `COc1cc(OC)c2c(c1OC)OCC(Cc1ccc(O)cc1)C2=O` (configuration not stated), in assay [1], the GI50 was > 25 µM (inactive).

Consider `CC(C)[C@@H](COC(C)(C)C)/N=C/N1CCc2c([nH]c3ccccc23)C1`, for which the GI50 in assay [2], in assay [3], in assay [5], in assay [6] and in assay [7] was > 100 µM (inactive) each time.

Regarding `CC(=O)N(C)CCc1c[nH]c2ccccc12`, in assay [1], the GI50 is > 100 µM (inactive).

For the compound `O=C(CC(CC(=O)Oc1c(Br)cc(Br)cc1C(=O)O)C(=O)Oc1c(Br)cc(Br)cc1C(=O)O)Oc1c(Br)cc(Br)cc1C(=O)O`, the GI50 was 49.2 µM (inactive) in assay [2]; 65 µM (inactive) in assay [3]; > 100 µM (inactive) in assay [4]; 31.8 µM (inactive) in assay [5]; 58.6 µM (inactive) in assay [6]; > 100 µM (inactive) in assay [7].

Regarding `COc1ccc(/C=C2\OC(=O)C(Cl)=C2c2ccc(OC)cc2)cc1`, the GI50 in assay [1] was > 100 µM (inactive).

As to `CN(C)c1ccc(-c2nc(N)nc3c2CCCC3)cc1`, the GI50 is 64.7 µM (inactive) in assay [2]; 54.5 µM (inactive) in assay [3]; 45 µM (inactive) in assay [4]; 38.5 µM (inactive) in assay [5]; 63.8 µM (inactive) in assay [6]; 50.2 µM (inactive) in assay [7].

For the compound `Cc1nn(C(=O)Cc2ccccc2)c2c1C(c1ccccc1[N+](=O)[O-])SC(=N)N2` (configuration not stated), in assay [1], the GI50 is > 100 µM (inactive).

On to `COc1cc(S(=O)(=O)Nc2nc(-c3ccc(/N=C/c4cccs4)cc3)cs2)ccc1Cl`, for which, in assay [1], the GI50 was > 100 µM (inactive).

As for `CC(=O)C1C(c2ccc(N(C)C)cc2)c2cc3c(cc2OC1(C)O)OCO3` (configuration not stated), the GI50 was 56 µM (inactive) in assay [2]; 59.3 µM (inactive) in assay [3]; 68.9 µM (inactive) in assay [8]; 45.2 µM (inactive) in assay [4]; 33.3 µM (inactive) in assay [5]; 29.4 µM (inactive) in assay [7].

On to `O=C(O)CSc1n[nH]c(=O)[nH]c1=O`, for which, in assay [1], the GI50 was > 100 µM (inactive).

Regarding `CCCCCCc1cc2cc(-c3cn4ccccc4n3)c(=O)oc2cc1O`, the GI50 in assay [1] was 6.17 µM (inactive).

As to `O=C(Cc1ccccc1)NN1C(=O)C(Cl)C1c1ccccc1Cl` (configuration not stated), the GI50 in assay [2] was 83.6 µM (inactive); in assay [3], > 69.2 µM (inactive); in assay [8], > 100 µM (inactive); in assay [4] it was > 100 µM (inactive); in assay [5] it was 32.6 µM (inactive); in assay [6], 33.6 µM (inactive). The GI50 in assay [7] is 72.8 µM (inactive).

Consider `O=C(/C=C1\C[C@H]2C=Nc3ccccc3C(=O)N2C1)NCCCCNC(=O)/C=C1\C[C@H]2C=Nc3ccccc3C(=O)N2C1`, for which the GI50 in assay [1] is 11 µM (inactive).

For the compound `CCOP1(=O)CC(C)=C(Cl)C(O)C1` (configuration not stated), the GI50 in assay [1] was > 100 µM (inactive).

For `[O-]c1c2cc(-[n+]3c(-c4ccccc4)cc(-c4ccccc4)cc3-c3ccccc3)cc1CO[C@@H](c1ccccc1)[C@H](c1ccccc1)OCc1cccc(n1)CO[C@@H](c1ccccc1)[C@H](c1ccccc1)OC2`, the GI50 in assay [1] is 0.0548 µM (active).

`CN1C(=O)C2C(=O)N(Cc3ccccc3)CC(=O)N2c2cccnc21` (configuration not stated): the GI50 in assay [1] is > 100 µM (inactive).

In the case of `CCOC(=O)CN1C(=O)c2ccc(NC(=O)C(=O)O)cc2S1(=O)=O`, in assay [1], the GI50 is > 100 µM (inactive).

As to `CCCC(=O)Nc1cc(/C=C/C(=O)N2CC(CCl)c3c2cc(OC(C)=O)c2[nH]cc(C)c32)n(C)c1` (configuration not stated), in assay [1], the GI50 is 5.12e-05 µM (active).

For `COC(=O)C(C(=O)C(=O)Nc1ccc(C)cc1)c1nc2ccc([N+](=O)[O-])cc2nc1O` (configuration not stated), the GI50 in assay [2] is > 100 µM (inactive); in assay [3], > 100 µM (inactive); in assay [8], > 100 µM (inactive); in assay [4], > 100 µM (inactive); in assay [5], 21.3 µM (inactive); in assay [6], 51.6 µM (inactive). Besides, the GI50 in assay [7] is > 100 µM (inactive).

Consider `CCCCCCNC(=O)c1cc(NCc2cc(OC)ccc2OC)ccc1O`, for which, in assay [1], the GI50 is 18.9 µM (inactive).

`COc1ccc(CC2c3cc(Oc4cc(CC5c6cc(OC)c(OC)cc6CCN5C)ccc4O)c(OC)cc3CCN2C)cc1` (configuration not stated): in assay [1], the GI50 is 7.1 µM (inactive).

Consider `CCOC(=O)c1c(NC(=O)c2ccccc2)c(C#N)c2n1CCCCC2`, for which the GI50 in assay [1] is > 100 µM (inactive).

For the compound `CN1CCc2c(sc3ncn(C)c(=N)c23)C1`, the GI50 in assay [1] is > 100 µM (inactive).

Take `CC(=O)c1cccc(N2COC(C)(C)c3nc4ccccc4n3C2)c1`: the GI50 in assay [2], in assay [3], in assay [8], in assay [4], in assay [5] and in assay [6] was > 100 µM (inactive) each time. Moreover, the GI50 in assay [7] is > 100 µM (inactive).

Regarding `CS/C(=N/C#N)NCCc1c[nH]c2ccccc12`, the GI50 in assay [2] was > 100 µM (inactive); in assay [3], > 100 µM (inactive); in assay [4], > 100 µM (inactive); in assay [5] it was 60.1 µM (inactive); in assay [6], > 100 µM (inactive); in assay [7], > 100 µM (inactive).

With `CN(C)CC/C(=N\Nc1ccc(Cl)cc1)c1ccccc1`, the GI50 is 1.38 µM (inactive) in assay [2]; 0.409 µM (active) in assay [3]; 2.13 µM (inactive) in assay [8]; 1.7 µM (inactive) in assay [4]; 0.933 µM (active) in assay [5]; 0.182 µM (active) in assay [6]. Also, in assay [7], the GI50 was 0.366 µM (active).

`CC(=O)Nc1cc2c(s1)CCC1CC(=O)NN=C21` (configuration not stated): the GI50 in assay [2], in assay [4], in assay [5], in assay [6] and in assay [7] was > 100 µM (inactive) each time.

For `C=CC1(CBr)CCC(C(C)(C)Br)O1` (configuration not stated), the GI50 in assay [1] was 8.57 µM (inactive).

On to `Cc1ccc(CC(=O)Nc2ccc(NC(=O)/C=C/NC(=O)/C=C/c3ccc(-c4ccccc4)cc3)cc2C(=O)c2ccccc2)cc1`, for which the GI50 in assay [1] was 2.5 µM (inactive).

Regarding `COc1ccc(NC/C=C/C(=C/COC(C)=O)OC(C)=O)cc1`, the GI50 in assay [1] is 2.05 µM (inactive).

With `COc1cc(C(c2cccc3ccccc23)N2C(=O)CCC2C(=O)NCc2ccccc2)cc(OC)c1OC` (configuration not stated), the GI50 in assay [1] is > 100 µM (inactive).

`NS(=O)(=O)c1ccc(NC(=O)c2cc([N+](=O)[O-])cc([N+](=O)[O-])c2)cc1`: the GI50 in assay [1] was 21.8 µM (inactive).

Take `O=C(O)CNC(=O)CO/N=C1/C(=C2/C(=O)Nc3ccccc32)Nc2ccccc21`: the GI50 in assay [1] is 84.9 µM (inactive).

In the case of `CCOC(=O)c1nc2ccccc2nc1Oc1cc(OC)cc(OC)c1`, the GI50 in assay [1] was > 100 µM (inactive).

Regarding `CC(=O)OCC1OC(O[C@@H]2c3c(O)c4c(c(O)c3C3=C(NN(c5ccc([N+](=O)[O-])cc5[N+](=O)[O-])[Se]3=O)[C@@]2(C)O)C(=O)c2ccccc2C4=O)C(OC(C)=O)C(OC(C)=O)C1OC(C)=O` (some centres not stated), the GI50 in assay [1] is 0.273 µM (active).

For the compound `Cc1ccc(-c2nc(Cc3n[nH]c(-c4ccc(C)cc4)n3)n[nH]2)cc1`, the GI50 in assay [1] is > 100 µM (inactive).

As for `O=C(/N=c1/[nH]/c(=N/C(=O)c2ccccc2)ss1)c1ccccc1`, the GI50 in assay [2] was 48.1 µM (inactive); in assay [4], 33.6 µM (inactive); in assay [5], 26.7 µM (inactive); in assay [7] it was 23.1 µM (inactive).

In the case of `O=C1CCc2cc3c(cc21)C(C(=O)O)CC3` (configuration not stated), in assay [1], the GI50 is > 100 µM (inactive).

For the compound `Cc1ccc2c3ccc4c(c3n(C)c2c1)C(=O)C=CC4=O`, in assay [1], the GI50 is 4.94 µM (inactive).

Regarding `COc1c(-c2nc3ccc(N4CCN(C)CC4)cc3[nH]2)cc(OC)c2[nH]c(CO)nc12`, the GI50 in assay [1] was 89.7 µM (inactive).

On to `O=C1C(Cl)=C(NCCO)C(=O)c2c(O)ccc(O)c21`, for which the GI50 in assay [1] was 1.77 µM (inactive).

Regarding `CCCc1c(C(=O)OCC)[nH]c(C(=O)CCC(=O)c2[nH]c(C(=O)OCC)c(CCC)c2C(=O)OCC)c1C(=O)OCC`, the GI50 in assay [2], in assay [3], in assay [8], in assay [4], in assay [5] and in assay [6] was > 100 µM (inactive) in each case. In addition, the GI50 in assay [7] is 84.5 µM (inactive).

As to `O=S(O)CCCSSc1ccccc1`, the GI50 in assay [2] was 32.7 µM (inactive); in assay [3], 41.9 µM (inactive); in assay [8], > 100 µM (inactive); in assay [4] it was 39.4 µM (inactive); in assay [5], 16.8 µM (inactive); in assay [6], 32.5 µM (inactive). Besides, the GI50 in assay [7] is 30.8 µM (inactive).

On to `Cc1ccc(/N=N/c2c(O)ccc3cc(S(=O)(=O)O)cc(S(=O)(=O)O)c23)cc1`, for which the GI50 in assay [1] was > 100 µM (inactive).

With `C[N+](C)(C)[BH-](Br)C(O)O` (configuration not stated), the GI50 in assay [1] is > 100 µM (inactive).

`CC(=O)c1nc2ccccc2n1CC(=O)c1ccc(Cl)cc1`: in assay [1], the GI50 was 1.93 µM (inactive).

`CCN(CC)CCC(=O)c1ccc(Cl)c(Cl)c1`: in assay [1], the GI50 is > 10 µM (inactive).

In the case of `COC(=O)C(Cc1c[nH]c2ccccc12)NC(=O)C(Cc1c[nH]c2ccccc12)NC(=O)C(Cc1c[nH]c2ccccc12)NC(=O)C(Cc1c[nH]c2ccccc12)NC(=O)C(Cc1c[nH]c2ccccc12)NC(=O)C(Cc1c[nH]c2ccccc12)NC(=O)C(Cc1c[nH]c2ccccc12)NC(=O)C(Cc1c[nH]c2ccccc12)NC(=O)OC(C)(C)C` (configuration not stated) (Boc-WWWWWWWW-OMe; configuration not given here), the GI50 in assay [1] was 39.1 µM (inactive).
